Experimental data taken from patent US7183440B2, “Pharmaceutically useful compounds” (priority 2005, dated 2007).
Read-outs that look alike come from different tables or passages of the source.

Key:
HSF = HSF activation, luciferase reporter controlled by the human hsp70 promoter in HeLa cell clone 13B; assay type: cell-based; conditions: read-out: HSF AC200/μM
Method: (§1) HeLa cell clone 13B, stably transfected with a luciferase reporter plasmid controlled by the human hsp70 promoter, and HeLa κB-transformed cells, stably transfected with a luciferase reporter plasmid controlled by a synthetic NF-κB-STM construct, were maintained in DMEM medium supplemented with 10% FBS, L-glutamine (2 mM) and G418 (250 μg/ml) at 37° C. in a 5% CO2 humidified atmosphere.
(§2) Cells were seeded at a density of 4×10^4 cells/well in 96-well plates. After 18–20 h, the medium was removed and cells were treated for 8 h with the test compounds (100 μl) at the appropriate dilutions in serum-free medium. For the NF-κB-dependent reporter gene assay, cells were stimulated with TPA (25 ng/ml) 2 h after exposure to the compounds.
(§3) After incubation, the medium was removed and cells were lysed in 10 μl of lysis buffer. The luciferase activity was determined by adding 100 μl of substrate and measuring the release of light using a Victor 1420 microplate reader (Wallac, Finland).
(§4) The AC200/μM for HSF is the concentration at which the tested compound doubled the HSF activity in this assay. The IC50/μM for NF-κB is the concentration at which the tested compound halved the NF-κB activity in this assay. […] The LC50/μM is the concentration at which the tested compound killed half the cells in each assay. […] (n.d. means not done)

NF-κB = experiment: NF-κB-dependent luciferase reporter gene assay in HeLa κB-transformed cells stimulated with TPA; assay type: cell-based, human
Method: as §1, §2, §3
The fragment Kpn I-BamH I from the pGL3 basic vector containing the luciferase gene (PROMEGA) was inserted in the pcDNA3 vector (INVITROGEN) digested with Bgl II-KpnI. (This digestion removes the CMV-promoter from pcDNA3.) The resulting new vector was digested with Kpn I-Hind III and a promoter containing a ‘5×NF-κB binding sites-TATA box’ sequence was inserted upstream of the luciferase gene. This vector has been named STM.
To obtain stable HeLa cell lines expressing the luciferase gene under the control of NF-κB, HeLa cells were transfected (using lipofectamine plus GIBCO) with the STM-Pvu I linearized vector, and selected for 20 days with G418 (800 μg/ml). After selection, the resistant HeLa cell pool was controlled (in quadruplicate samples) for luciferase activity after stimulation with TNFα, IL-1 and TPA.
as §4

in vitro [1] = assay type: cell-based; conditions: monkey, 50% lethal dose/concentration, neutral red assay, 37RC cells, read-out: LC50/μM
Method: Cell viability was determined using the Neutral Red assay.

HeLa cells [2] = experiment: in vitro; assay type: cell-based; conditions: human, 8 h
Method: HeLa cells were plated in 96-well microtiter plates in 100 μl culture medium (4×10^4/well). After 20 hours, the cells were exposed to the test compounds at different dilutions and incubated for the next 8 h at 37° C. in a 5% CO2 humidified atmosphere. After 6 h incubation, the Alamar Blue was added in an amount equal to 10% of the culture volume (10 μl). Two hours after the addition of the Alamar Blue, the fluorescence was measured using a Victor 1420 microplate reader.

Sendai virus = experiment: Replication of Sendai virus in 37RC cells, virus yield by haemagglutinin titration; assay type: cell-based; conditions: Respirovirus muris, read-out: ID50/μM
Method: Monkey kidney 37RC cells were grown at 37° C. in RPMI medium supplemented with 5% foetal bovine serum (FBS), L-glutarine (2 mM) and antibiotics. Sendai virus was grown in the allantoic cavity of 10-day-old embryonated eggs. Viral titre was expressed in haemagglutinating units (HAU) per ml; haemagglutinin titration was done according to standard procedures, as described in C. Amici et al. (J. Virol. 68: 6890–6899, 1994). […] Confluent 37RC monolayers were infected with Sendai Virus (5 HAU/ml) for 1 h at 37° C. After 1 hour incubation, viral inoculum was removed and cells were treated with the test compounds at different concentrations. Virus yields were determined 24 h post infection by haemagglutinin titration. Mock-infected cells were treated identically and processed for cytotoxicity assay (Neutral Red assay) at the same time (see below). The results were expressed as HAU/ml (each point represents the mean of duplicate samples).

Monkey kidney 37RC cells = assay type: cell-based; conditions: concentration 100% toxic to uninfected 37RC cells, visually by microscopy
HeLa cells [3] = experiment: in vitro; conditions: read-out: Toxicity Neutral Red LC50/μM; HeLa cells; concentration that killed half the cells
Method: (§5) This assay was carried out on HeLa cells using a technique analogous to that described below in Example 36(b) for Monkey Kidney 37RC cells.
as §4
(§6) Cell viability was determined using the Neutral Red assay. 37RC cells were seeded at density of 6×10^4 cells/well in 24-well plates and incubated for 24 h. Confluent 37RC monolayers were treated with the test compounds at different dilutions for 24 h at 37° C. After incubation, the medium was removed and the cells were incubated with RPMI medium containing 40 μg/ml Neutral Red dye (500 μl/well). After 2 h at 37° C., the monolayers were washed with phosphate-buffered saline (PBS) and then with a solution containing 1% CaCl2 and 0.5% formaldehyde. After washing, a solution containing 1% acetic acid/50% ethanol was added to the monolayers (250 μl/well). After 10 min at room temperature, the absorbance was determined with a microplate reader (Victor 1420, Wallac) at 540 nm.

in vitro [4] = conditions: human
Method: as §5, §4, §6

[5] = Homo sapiens, concentration at which the compound doubled HSF activity, HeLa clone 13B, 8 h treatment
[6] = Homo sapiens, concentration that halved NF-κB activity, HeLa reporter cells, TPA 25 ng/ml, 8 h treatment
[7] = 50% inhibitory dose/concentration at 24 hours, Sendai virus in 37RC cells

Molecule	EC (2-fold HSF activity) (HSF; [5]) [µM]	IC50 (NF-κB; [6]) [µM]	CC50 at 24 h (in vitro [1]) [µM]	CC50 (HeLa cells [2]) [µM]	IC50 (Sendai virus; [7]) [µM]	TD100/μM (Monkey kidney 37RC cells) [µM]	CC50 (HeLa cells [3]) [µM]	EC (2-fold HSF activity) (HSF) [µM]	IC50 (NF-κB) [µM]	CC50 at 24 h (in vitro [4]) [µM]	IC50 (Sendai virus; 24 h) [µM]
CC(C)/C=C1/C(=O)C=C[C@@H]1NC(=O)OC(C)(C)C [CTC-199, (2S)-(5-iso-Butylidene-4-oxocyclopent-2-enyl)-carbamic acid tert-butyl ester]	1.8	5	4	> 800	1	50					
CC(C)/C=C1/C(=O)C=CC1NC(=O)OC(C)(C)C (stereo not shown) [CTC-121, (5-iso-Butylidene-4-oxocyclopent-2-enyl)-carbamic acid tert-butyl ester]	2.8	4.7	4	> 800	1	50					
COC(=O)[C@H](CSC1CC(=O)/C(=C/C(C)C)C1C)NC(=O)OC(C)(C)C (stereo partly shown) [CTM-126]	18	21		> 800							
O=C1C=CC(Nc2ccccc2)C1 (stereo not shown) [CTC-252, 4-Phenylamino-cyclopent-2-one]	27	57		> 800							
[(1R,2R)-2-(Naphthalen-2-ylsulfanyl)-4-oxocyclopentyl]-carbamic acid methyl ester; compound with benzene [CTM-238]							113	26	17		
CCCCC/C=C1/C(=O)C=CC1C (stereo not shown) [CTC-164]	> 100	40		> 800							
CC(C)(C)OC(=O)NC1C=CC(=O)/C1=C/c1ccc(Cl)cc1 (stereo not shown) [CTC-247, [(E)-5-(4-Chloro-benzylidene)-4-oxo-cyclopent-2-enyl]-carbamic acid tert-butyl ester]	2	9	3.4	> 800	0.6	10				72	
O=C1C=CC(NC(=O)c2ccccc2)C1 (stereo not shown) [CTC-171, N-(4-Oxocyclopent-2-enyl)-benzamide]	51	38	59	> 800	20	100					
CC(C)/C=C1/C(=O)C=C[C@H]1NC(=O)OC(C)(C)C [CTC-195, (2R)-(5-iso-Butylidene-4-oxocyclopent-2-enyl)-carbamic acid tert-butyl ester]	5	6.6	4	> 800	0.4	10					
CC(C)(C)OC(=O)NC1C=CC(=O)/C1=C/c1ccccc1 (stereo not shown) [CTC-248, ((E)-5-Benzylidene-4-oxo-cyclopent-2-enyl)-carbamic acid tert-butyl ester]	1.8	4	33	> 800		10				33	0.6
CC(C)(C)OC(=O)NC1C=CC(=O)C1 (stereo not shown) [CTC-132, (4-Oxocyclopent-2-enyl)-carbamic acid tert-butyl ester]	51	52		> 800	20	100					
CC(C)(C)OC(=O)N[C@@H](CS[C@@H]1CC(=O)/C(=C/c2ccccc2)[C@H]1NC(=O)OC(C)(C)C)C(=O)O [CTM-228, (2R)-3-((1R,2R)-(E)-3-Benzylidene-2-tert-butoxycarbonylamino-4-oxocyclopentylsulfanyl)-2-tert-butoxycarbonylaminopropionic acid]	< 6.2	< 6.2								25	
